This passage reports DC50, EC50 and Emax results from patent US20250320206A1, “STAT6 DEGRADERS” (Gilead Sciences, Inc., priority 2024, published 2025).

Each structure is given as a SMILES string.

The target in one experiment is T1, STAT6 (Homo sapiens, UniProt P42226).
T1 construct: These cells express endogenous STAT6; host or cells: HeLa LgBiT clone 4.14
T1 sequence (P42226 1-847): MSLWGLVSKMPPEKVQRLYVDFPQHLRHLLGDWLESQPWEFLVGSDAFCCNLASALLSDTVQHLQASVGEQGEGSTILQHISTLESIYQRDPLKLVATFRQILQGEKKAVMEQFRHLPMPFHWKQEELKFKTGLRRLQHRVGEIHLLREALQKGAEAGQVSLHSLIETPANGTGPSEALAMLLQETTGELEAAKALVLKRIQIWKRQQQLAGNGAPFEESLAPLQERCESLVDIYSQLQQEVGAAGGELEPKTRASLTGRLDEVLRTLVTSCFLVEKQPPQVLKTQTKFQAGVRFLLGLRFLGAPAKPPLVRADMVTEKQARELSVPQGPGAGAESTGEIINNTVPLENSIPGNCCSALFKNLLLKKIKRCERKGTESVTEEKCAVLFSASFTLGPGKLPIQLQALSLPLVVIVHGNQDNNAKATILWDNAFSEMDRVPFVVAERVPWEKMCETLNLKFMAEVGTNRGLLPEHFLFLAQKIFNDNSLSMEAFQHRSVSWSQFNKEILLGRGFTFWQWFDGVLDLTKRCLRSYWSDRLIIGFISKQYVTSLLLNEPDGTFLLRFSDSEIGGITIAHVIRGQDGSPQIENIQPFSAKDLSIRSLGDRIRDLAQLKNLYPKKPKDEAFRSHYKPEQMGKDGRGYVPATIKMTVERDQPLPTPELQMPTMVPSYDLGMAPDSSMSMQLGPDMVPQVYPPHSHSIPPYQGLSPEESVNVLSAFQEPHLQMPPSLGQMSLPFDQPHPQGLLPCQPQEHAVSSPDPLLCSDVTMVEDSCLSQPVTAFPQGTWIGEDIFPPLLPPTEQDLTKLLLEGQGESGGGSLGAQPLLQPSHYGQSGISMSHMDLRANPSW
In words: Stat6 Degrader Assay (HiBiT based, HeLa LgBiT clone 4.14). Format: cell-based. To be noted: HeLa LgBiT clone 4.14 HiBiT-STAT6, 4-24 h incubation; for DC50: values given for compounds with >80% Emax, geometric mean, read-out: STAT6 degradation DC50. The method in brief:
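HeLa LgBiT clone 4.14 cells with CRISPR HiBiT-tagged endogenous STAT6, 5000 cells/well, compound dosed then incubated 4-24 h at 37° C, 5% CO2. Nano-Glo substrate added, 0.5 h, luminescence read as non-degraded STAT6. Terfenadine 50 μM (cell kill) defines 100% degradation.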
(HiBiT is a short tag that completes a luciferase, so light tracks the accessible tagged protein.)

The subject of experiment [1] is Eotaxin-3 release in human whole blood stimulated with IL-4. Nature of the experiment: Human Whole Blood Eotaxin-3 Assay (IL-4 stimulated eotaxin-3 release). Format: cell-based. To be noted: IL-4 stimulation, 48 h, values given for compounds with >80% Emax, geometric mean. Put shortly: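 Lithium-heparin human whole blood preincubated 2 h at 37° C with 4-fold serially diluted compounds (0.5% DMSO), then stimulated with recombinant human IL-4 ([…]) for 48 h. Eotaxin-3 (CCL26) in supernatant quantified by MSD immunoassay.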

A word on the DC50: it is the midpoint of the concentration-degradation curve. The EC50 is the midpoint of the concentration-response curve. Read a low EC50 as an effect from little substance. With `CNc1cc(=O)n(-c2ccnc3c2cc([C@H](C)N2CC=C(c4c(C)cc(C(=O)N5CCC(CN6CCN(Cc7ccc8c(c7)C7(CCC7)C(=O)N8C7CCC(=O)NC7=O)CC6)CC5)cc4F)CC2)n3C)cc1F` (stereo partly drawn) [Example 3u258, 3-(5′-((4-((1-(3-fluoro-4-(1-((S)-1-(4-(5-fluoro-4-(methylamino)-2-oxopyridin-1 (2H)-yl)-1-methyl-1H-pyrrolo[2,3-b]pyridin-2-yl)ethyl)-1,2,3,6-tetrahydropyridin-4-yl)-5-methylbenzoyl)piperidin-4-yl)methyl)piperazin-1-yl)methyl)-2′-oxospiro[cyclobutane-1,3′-indolin]-1′-yl)piperidine-2,6-dione], the DC50 at STAT6 is 3.1 nM. Moreover, the EC50 in experiment [1] came to 7 nM.

For the compound `CNc1cc(=O)n(-c2ccnc3c2cc([C@H](C)N2CC=C(c4c(C)cc(C(=O)N5CCC(CC6CCN(c7ccc8c(c7)C7(CC7)C(=O)N8C7CCC(=O)NC7=O)CC6)CC5)cc4F)CC2)n3C)cc1F` (stereo partly drawn) [Example 3u284, 3-(5′-(4-((1-(3-fluoro-4-(1-((S)-1-(4-(5-fluoro-4-(methylamino)-2-oxopyridin-1 (2H)-yl)-1-methyl-1H-pyrrolo[2,3-b]pyridin-2-yl)ethyl)-1,2,3,6-tetrahydropyridin-4-yl)-5-methylbenzoyl)piperidin-4-yl)methyl)piperidin-1-yl)-2′-oxospiro[cyclopropane-1,3′-indolin]-1′-yl)piperidine-2,6-dione], at STAT6, the DC50 stood at 22.6 nM. The compound also registered an EC50 in experiment [1] of 24 nM.

For the compound `CNc1ccn(-c2ccnc3c2cc([C@H](C)N2CC=C(c4c(C)cc(C(=O)N5CCC(CN6CCN(c7ccc8c(c7)n(C7CC7)c(=O)n8C7CCC(=O)NC7=O)CC6)CC5)cc4F)CC2)n3C)c(=O)c1` (stereo partly drawn) [Example 3u287, 3-(3-cyclopropyl-5-(4-((1-(3-fluoro-5-methyl-4-(1-((S)-1-(1-methyl-4-(4-(methyl-amino)-2-oxopyridin-1 (2H)-yl)-1H-pyrrolo[2,3-b]pyridin-2-yl)ethyl)-1,2,3,6-tetrahydropyridin-4-yl)benzoyl)piperidin-4-yl)methyl)piperazin-1-yl)-2-oxo-2,3-dihydro-1H-benzo[d]imidazol-1-yl)-piperidine-2,6-dione], the DC50 at STAT6 was 2.7 nM. This compound also had an EC50 in experiment [1] of 2.9 nM.

In the case of `CNc1cc(=O)n(-c2ccnc3c2cc([C@H](C)N2CC=C(c4c(C)cc(C(=O)N5CCC(CN6CCN(c7ccc8c(c7)C7(CC7)C(=O)N8C7CCC(=O)NC7=O)C[C@H]6C)CC5)cc4F)CC2)n3C)cc1F` (stereo partly drawn) [Example 3u295, 3-(5′-((R)-4-((1-(3-fluoro-4-(1-((S)-1-(4-(5-fluoro-4-(methylamino)-2-oxopyridin-1 (2H)-yl)-1-methyl-1H-pyrrolo[2,3-b]pyridin-2-yl)ethyl)-1,2,3,6-tetrahydropyridin-4-yl)-5-methylbenzoyl)piperidin-4-yl)methyl)-3-methylpiperazin-1-yl)-2′-oxospiro[cyclopropane-1,3′-indolin]-1′-yl)piperidine-2,6-dione], at STAT6, the DC50 came to 4.5 nM. The EC50 in experiment [1] worked out at 18.9 nM.

Consider `CNc1cc(=O)n(-c2ccnc3c2cc([C@H](C)N2CC=C(c4c(C)cc(C(=O)N5CCC(CN6CCN(c7ccc8c(c7)n(C)c(=O)n8C7CCC(=O)NC7=O)CC6)CC5)cc4F)CC2)n3C)cc1F` (stereo partly drawn) [Example 3u298, 3-(5-(4-((1-(3-fluoro-4-(1-((S)-1-(4-(5-fluoro-4-(methylamino)-2-oxopyridin-1 (2H)-yl)-1-methyl-1H-pyrrolo[2,3-b]pyridin-2-yl)ethyl)-1,2,3,6-tetrahydropyridin-4-yl)-5-methylbenzoyl)-piperidin-4-yl)methyl)piperazin-1-yl)-3-methyl-2-oxo-2,3-dihydro-1H-benzo[d]imidazol-1-yl)-piperidine-2,6-dione], for which the DC50 on STAT6 turned out to be 1.8 nM. This compound gave a concentration for a half-maximal effect (EC50) in experiment [1] of 2.6 nM.

On to `CNc1ccn(-c2ccnc3c2cc([C@H](C)N2CC=C(c4c(C)cc(C(=O)N5CCC(CN6CCN(c7ccc8c(c7)n(C)c(=O)n8C7CCC(=O)NC7=O)CC6)CC5)cc4F)CC2)n3C)c(=O)c1` (stereo partly drawn) [Example 3u299, 3-(5-(4-((1-(3-fluoro-5-methyl-4-(1-((S)-1-(1-methyl-4-(4-(methylamino)-2-oxopyridin-1 (2H)-yl)-1H-pyrrolo[2,3-b]pyridin-2-yl)ethyl)-1,2,3,6-tetrahydropyridin-4-yl)benzoyl)piperidin-4-yl)methyl)piperazin-1-yl)-3-methyl-2-oxo-2,3-dihydro-1H-benzo[d]imidazol-1-yl)piperidine-2,6-dione], for which, at STAT6, the DC50 was determined as 0.9 nM. The compound also showed a concentration for a half-maximal effect (EC50) in experiment [1] of 0.5 nM.

For `CNc1cc(=O)n(-c2ccnc3c2cc([C@H](C)N2CC=C(c4c(F)cc(C(=O)N5CCC(CN6CCN(c7ccc8c(c7)C7(CC7)C(=O)N8C7CCC(=O)NC7=O)CC6)CC5)cc4F)CC2)n3C)cc1F` (stereo partly drawn) [Example 3u300, 3-(5′-(4-((1-(3,5-difluoro-4-(1-((S)-1-(4-(5-fluoro-4-(methylamino)-2-oxopyridin-1 (2H)-yl)-1-methyl-1H-pyrrolo[2,3-b]pyridin-2-yl)ethyl)-1,2,3,6-tetrahydropyridin-4-yl)benzoyl)-piperidin-4-yl)methyl)piperazin-1-yl)-2′-oxospiro[cyclopropane-1,3′-indolin]-1′-yl)piperidine-2,6-dione], the DC50 on STAT6 came out at 13 nM. This compound displayed an EC50 in experiment [1] of 24.1 nM.

The term Emax denotes the maximal effect, on the per cent scale that the assay sets. In the case of `CNc1cc(=O)n(-c2ccnc3c2cc(CN2CCC(c4c(F)cc(C(=O)N5CCC(CN6CCN(c7ccc8c(c7)C7(CC7)C(=O)N8C7CCC(=O)NC7=O)CC6)CC5)cc4F)CC2)n3C)cc1F` (stereo not shown) [Example 3u301, 3-(5′-(4-((1-(3,5-difluoro-4-(1-((4-(5-fluoro-4-(methylamino)-2-oxopyridin-1 (2H)-yl)-1-methyl-1H-pyrrolo[2,3-b]pyridin-2-yl)methyl)piperidin-4-yl)benzoyl)piperidin-4-yl)methyl)-piperazin-1-yl)-2′-oxospiro[cyclopropane-1,3′-indolin]-1′-yl)piperidine-2,6-dione], the Emax at STAT6 (read-out: STAT6 degradation Emax) is 20 to 30%. Moreover, the midpoint of the response in experiment [1], the EC50, lay at 90.5 nM.

With `CNc1cc(=O)n(-c2ccnc3c2cc([C@H](C)N2CC=C(c4c(C)cc(C(=O)N5CCC(CN6CCN(c7ccc8c(c7)C7(CC7)C(=O)N8C7CCC(=O)NC7=O)CC6)CC5)cc4F)CC2)n3C)cc1F` (stereo partly drawn) [Example 3u302, 3-(5′-(4-((1-(3-fluoro-4-(1-((S)-1-(4-(5-fluoro-4-(methylamino)-2-oxopyridin-1 (2H)-yl)-1-methyl-1H-pyrrolo[2,3-b]pyridin-2-yl)ethyl)-1,2,3,6-tetrahydropyridin-4-yl)-5-methylbenzoyl)piperidin-4-yl)methyl)piperazin-1-yl)-2′-oxospiro[cyclopropane-1,3′-indolin]-1′-yl)piperidine-2,6-dione], at STAT6, the DC50 was found to be 4.9 nM. This compound returned an EC50 in experiment [1] of 29.2 nM.

With `CNc1cc(=O)n(-c2ccnc3c2cc([C@H](C)N2CC=C(c4c(C)cc(C(=O)N5CCC(CN6CCN(c7ccc8c(c7)C(C)(C)C(=O)N8C7CCC(=O)NC7=O)CC6)CC5)cc4F)CC2)n3C)cc1F` (stereo partly drawn) [Example 3u303, 3-(5-(4-((1-(3-fluoro-4-(1-((S)-1-(4-(5-fluoro-4-(methylamino)-2-oxopyridin-1 (2H)-yl)-1-methyl-1H-pyrrolo[2,3-b]pyridin-2-yl)ethyl)-1,2,3,6-tetrahydropyridin-4-yl)-5-methylbenzoyl)piperidin-4-yl)methyl)piperazin-1-yl)-3,3-dimethyl-2-oxoindolin-1-yl)piperidine-2,6-dione], the DC50 on STAT6 turned out to be 21.7 nM. A half-maximal response in experiment [1] (EC50) required 37.1 nM.

As to `CNc1ccn(-c2ccnc3c2cc([C@H](C)N2CC=C(c4c(C)cc(C(=O)N5CCC(CN6CCN(c7ccc8c(c7)C(C)(C)C(=O)N8C7CCC(=O)NC7=O)CC6)CC5)cc4F)CC2)n3C)c(=O)c1` (stereo partly drawn) [Example 3u304, 3-(5-(4-((1-(3-fluoro-5-methyl-4-(1-((S)-1-(1-methyl-4-(4-(methylamino)-2-oxopyridin-1 (2H)-yl)-1H-pyrrolo[2,3-b]pyridin-2-yl)ethyl)-1,2,3,6-tetrahydropyridin-4-yl)benzoyl)piperidin-4-yl)methyl)piperazin-1-yl)-3,3-dimethyl-2-oxoindolin-1-yl)piperidine-2,6-dione], on STAT6, the DC50 was determined as 6.5 nM. For the same compound, the response in experiment [1] was half-maximal at 10.8 nM (EC50).
